Measured values as given in US20200096789A1, “Optical Aid” (priority 2017, published 2020).

Experiments:
Assay type in all cases: cell-based
U251 GBM cell line = experiment: selenite treatment in conjunction with SEPHS2 KO (growth); settings: 12 uM selenite; growth normalized to SEPHS2 KO cells
Method: FIGS. 2A-D provide evidence that SEPHS2 plays a detoxifying role in U251 GBM cell line. (A) Knockdown of either SEPHS2 or SEPSECS can block selenoprotein expression. (B) However, only SEPHS2 KO has significant toxicity. (C) Model for ‘pushing’ toxicity in which if SEPHS2 plays a detoxifying role, its KO should synergize with increased selenited input. (D) Synergy is indeed seen with 12 uM selenite treatment in conjunction with SEPHS2 KO. Growth is normalized to the already lower growth rate of the SEPHS2 KO cells, thus the bars in asterisks indicate (statistically significant) synergy.
We had classified SEPHS2 as a putative detoxifier as its substrate, selenide, is the most toxic form of selenium^12. The notion of SEPHS2 as a detoxifier has not previously been explored, and SEPHS2 is simply known for its enzymatic role (which cannot be replaced by its isoform, SEPHS1^13) as an intermediate step in producing selenocysteine for selenocysteinyl-tRNA production. The selenocysteine producing pathway is a simple and linear pathway starting from dietary […]—or […] or other inorganic forms which can be converted to selenite, selenite being the most common form^14,15. Selenite is imported and converted through in an unclear manner to form selenide, which is then metabolized by SEPHS2 to form selenophosphate, accompanied by ATP hydrolysis. […]

U251 cells = experiment: CRISPR/Cas9 screen of candidate selenium transporters: toxicity of 12 μM selenite; settings: both guides against SLC7A11, U251 cells
Method: We compared the cells that are sensitive to SEPHS2 KO vs those that are not sensitive to identify key drivers of selenide production. We examined these lines for susceptibility to high, toxic doses of selenite as it is an abundant and bioavailable form of selenium. We observed a strong correlation between susceptibility to high-dose selenite and to SEPHS2 KO (FIG. 4A). […] Two guides per candidate transporter were knocked out in U251 cells and effects on the toxicity of 12 μM selenite were examined.

SLC7A11 = molecular target: T1, SLC7A11 (Homo sapiens, UniProt Q9UPY5); experiment: total intracellular selenium levels after selenite supplementation; settings: knockout of SLC7A11
T1 construct: endogenous in cells
T1 sequence (Q9UPY5 1-501): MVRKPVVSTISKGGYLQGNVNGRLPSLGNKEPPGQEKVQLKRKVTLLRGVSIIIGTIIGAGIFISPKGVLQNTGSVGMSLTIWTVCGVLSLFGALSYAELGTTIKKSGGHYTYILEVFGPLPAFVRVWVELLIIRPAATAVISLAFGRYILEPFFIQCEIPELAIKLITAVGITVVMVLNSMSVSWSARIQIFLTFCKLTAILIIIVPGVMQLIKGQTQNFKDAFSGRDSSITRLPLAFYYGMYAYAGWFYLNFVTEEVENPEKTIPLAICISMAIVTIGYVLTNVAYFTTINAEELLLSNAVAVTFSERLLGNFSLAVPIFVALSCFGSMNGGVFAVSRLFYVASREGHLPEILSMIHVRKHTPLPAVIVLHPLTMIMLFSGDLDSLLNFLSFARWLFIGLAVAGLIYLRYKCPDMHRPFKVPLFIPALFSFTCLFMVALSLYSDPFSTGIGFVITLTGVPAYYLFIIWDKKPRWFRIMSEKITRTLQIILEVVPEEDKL
T1 sequence (P08195 1-529 partner): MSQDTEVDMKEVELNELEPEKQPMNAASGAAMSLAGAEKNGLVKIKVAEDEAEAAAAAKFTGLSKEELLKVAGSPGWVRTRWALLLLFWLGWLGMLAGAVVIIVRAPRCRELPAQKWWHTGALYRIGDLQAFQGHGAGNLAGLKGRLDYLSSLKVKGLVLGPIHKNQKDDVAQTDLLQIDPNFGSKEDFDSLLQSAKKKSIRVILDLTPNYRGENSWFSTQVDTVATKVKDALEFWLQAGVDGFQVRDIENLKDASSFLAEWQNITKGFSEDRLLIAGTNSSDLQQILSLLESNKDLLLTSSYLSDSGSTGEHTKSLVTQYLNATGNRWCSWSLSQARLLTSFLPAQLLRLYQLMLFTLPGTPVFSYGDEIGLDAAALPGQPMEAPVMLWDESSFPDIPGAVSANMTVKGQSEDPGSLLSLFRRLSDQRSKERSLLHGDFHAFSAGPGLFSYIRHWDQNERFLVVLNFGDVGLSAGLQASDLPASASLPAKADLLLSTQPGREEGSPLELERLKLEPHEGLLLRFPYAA
Description: SLC7A11 was 5.5-fold enriched in SEPHS2-sensitive cell lines (FIG. 4C).

GPX4 and SEPHS2 = experiment: selenoprotein expression after selenite supplementation; settings: supplementation with selenite to media

In the case of O=[Se](O)O [selenite], the “growth with selenite in conjunction with SEPHS2 KO” value (U251 GBM cell line) is reported as “Synergy”, the “toxicity of high-dose selenite after knockout of SLC7A11” value (U251 cells) is reported as “complete rescue” and the “total intracellular selenium due to supplemented selenite” value (SLC7A11) is reported as “prevented any increase”. For the same compound, the “expression of selenoproteins GPX4 and SEPHS2” value (GPX4 and SEPHS2) was “increased expression”.
